The values below come from ChEMBL document CHEMBL5465560, “Selectivity Literature for EUbOPEN Chemogenomic Library” (2024).

In experiment [1] the target is Serine/threonine-protein kinase PAK 2 (Homo sapiens) (UniProt Q13177). Put plainly: Selectivity interaction (KinomeScan (DiscoverX)) EUB0001619a PAK2. To be noted: at 1 µM.
Experiment [2] concerns the target T1, Mitogen-activated protein kinase kinase kinase 5 (Homo sapiens) (UniProt Q99683).
T1 sequence (whole entry): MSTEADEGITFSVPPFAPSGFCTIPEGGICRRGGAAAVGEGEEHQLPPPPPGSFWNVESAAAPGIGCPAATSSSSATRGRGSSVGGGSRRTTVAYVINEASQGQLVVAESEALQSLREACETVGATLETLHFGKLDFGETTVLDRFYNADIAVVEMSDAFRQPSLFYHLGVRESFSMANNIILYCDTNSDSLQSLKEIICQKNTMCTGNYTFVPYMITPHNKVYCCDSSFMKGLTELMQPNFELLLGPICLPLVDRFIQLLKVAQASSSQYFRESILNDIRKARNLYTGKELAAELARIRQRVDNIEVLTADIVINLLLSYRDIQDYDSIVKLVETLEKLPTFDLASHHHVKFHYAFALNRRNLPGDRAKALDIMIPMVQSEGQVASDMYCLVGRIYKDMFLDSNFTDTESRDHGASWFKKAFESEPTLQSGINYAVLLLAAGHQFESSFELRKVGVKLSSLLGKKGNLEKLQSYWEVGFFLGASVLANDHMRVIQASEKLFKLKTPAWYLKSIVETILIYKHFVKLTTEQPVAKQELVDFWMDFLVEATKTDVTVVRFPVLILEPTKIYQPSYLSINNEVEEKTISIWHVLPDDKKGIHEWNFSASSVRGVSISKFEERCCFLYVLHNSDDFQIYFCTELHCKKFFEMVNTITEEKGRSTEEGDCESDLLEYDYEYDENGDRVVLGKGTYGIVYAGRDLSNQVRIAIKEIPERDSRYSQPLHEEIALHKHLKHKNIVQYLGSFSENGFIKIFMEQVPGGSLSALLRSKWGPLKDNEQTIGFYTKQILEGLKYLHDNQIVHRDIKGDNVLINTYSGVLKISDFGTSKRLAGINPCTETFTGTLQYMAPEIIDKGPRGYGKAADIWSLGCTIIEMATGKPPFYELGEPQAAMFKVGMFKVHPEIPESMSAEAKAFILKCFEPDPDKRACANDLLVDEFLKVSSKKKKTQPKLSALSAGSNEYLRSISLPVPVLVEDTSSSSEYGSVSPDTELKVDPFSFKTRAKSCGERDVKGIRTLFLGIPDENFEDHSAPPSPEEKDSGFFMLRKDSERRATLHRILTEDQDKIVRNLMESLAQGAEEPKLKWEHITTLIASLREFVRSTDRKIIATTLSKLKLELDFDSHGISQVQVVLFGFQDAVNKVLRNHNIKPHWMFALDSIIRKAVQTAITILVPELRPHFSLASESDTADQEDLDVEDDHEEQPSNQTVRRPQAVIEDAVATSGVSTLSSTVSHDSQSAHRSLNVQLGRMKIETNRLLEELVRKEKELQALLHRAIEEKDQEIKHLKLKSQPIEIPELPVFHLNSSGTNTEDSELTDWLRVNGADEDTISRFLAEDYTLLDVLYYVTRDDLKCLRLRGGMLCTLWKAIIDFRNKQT
Put plainly: Selectivity interaction (Kinase panel (DSF assay)) EUB0001559a MAP3K5.

Experiment [3] has as its target T2, Ephrin type-B receptor 3 (Homo sapiens) (UniProt P54753).
T2 sequence (whole entry): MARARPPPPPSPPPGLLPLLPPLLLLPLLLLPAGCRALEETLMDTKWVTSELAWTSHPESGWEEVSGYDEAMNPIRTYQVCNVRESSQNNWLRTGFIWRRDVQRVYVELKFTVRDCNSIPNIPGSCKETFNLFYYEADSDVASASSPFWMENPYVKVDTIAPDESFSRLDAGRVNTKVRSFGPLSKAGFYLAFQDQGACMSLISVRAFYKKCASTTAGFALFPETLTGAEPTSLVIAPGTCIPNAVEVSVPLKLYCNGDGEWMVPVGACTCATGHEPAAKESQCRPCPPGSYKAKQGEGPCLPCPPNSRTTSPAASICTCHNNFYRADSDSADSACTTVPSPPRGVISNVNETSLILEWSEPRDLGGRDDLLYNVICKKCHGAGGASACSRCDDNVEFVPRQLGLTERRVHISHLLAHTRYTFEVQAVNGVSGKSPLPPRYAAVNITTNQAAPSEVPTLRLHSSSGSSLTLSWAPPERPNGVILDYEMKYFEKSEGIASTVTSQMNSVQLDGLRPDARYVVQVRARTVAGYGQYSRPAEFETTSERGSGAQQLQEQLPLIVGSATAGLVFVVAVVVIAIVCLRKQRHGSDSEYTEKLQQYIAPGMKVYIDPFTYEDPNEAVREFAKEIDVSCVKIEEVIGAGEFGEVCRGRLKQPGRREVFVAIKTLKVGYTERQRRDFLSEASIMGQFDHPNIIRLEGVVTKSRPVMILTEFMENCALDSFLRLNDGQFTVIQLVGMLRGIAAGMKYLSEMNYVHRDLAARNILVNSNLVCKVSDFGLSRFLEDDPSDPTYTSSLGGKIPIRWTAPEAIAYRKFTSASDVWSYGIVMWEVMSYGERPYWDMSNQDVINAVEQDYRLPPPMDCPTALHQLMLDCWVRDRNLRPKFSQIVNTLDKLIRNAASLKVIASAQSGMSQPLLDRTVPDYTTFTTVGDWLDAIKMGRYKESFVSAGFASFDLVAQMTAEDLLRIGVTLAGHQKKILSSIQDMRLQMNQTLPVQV
Put plainly: Selectivity interaction (Kinase panel (DSF assay)) EUB0001559a EPHB3. In general terms: Differential scanning fluorimetry follows unfolding on heating by fluorescence.

The target in experiment [4] is Ribosomal protein S6 kinase alpha-5 (Homo sapiens) (UniProt O75582). Description: Selectivity interaction (KinomeScan (DiscoverX)) EUB0000045b RPS6KA5. To be noted: at 1 µM.
Experiment [5] concerns the target Cyclin-dependent kinase 11B (Homo sapiens) (UniProt P21127). Description: Selectivity interaction (Ambit KINOMEscan and KiNATiv profiling in Jurkat cells) EUB0000090b CDK11B. Type of experiment: cell-based. To be noted: at 1 µM.
The target of experiment [6] is Ribosomal protein S6 kinase alpha-1 (Homo sapiens, UniProt Q15418). Put plainly: Selectivity interaction (Kinase panel (KiNativ target engagement assay in Jurkat cells)) EUB0001635a RPS6KA1. Type of experiment: cell-based. The conditions noted are these: Selectivity number of off-targets 0.0, Selectivity number of targets 233.0, Source Knowledge https://www.sciencedirect.com/science/article/pii/S2451945619300674?via%3Dihub, at 1 µM.
Ribosomal protein S6 kinase alpha-1, sequence (Q15418 whole entry): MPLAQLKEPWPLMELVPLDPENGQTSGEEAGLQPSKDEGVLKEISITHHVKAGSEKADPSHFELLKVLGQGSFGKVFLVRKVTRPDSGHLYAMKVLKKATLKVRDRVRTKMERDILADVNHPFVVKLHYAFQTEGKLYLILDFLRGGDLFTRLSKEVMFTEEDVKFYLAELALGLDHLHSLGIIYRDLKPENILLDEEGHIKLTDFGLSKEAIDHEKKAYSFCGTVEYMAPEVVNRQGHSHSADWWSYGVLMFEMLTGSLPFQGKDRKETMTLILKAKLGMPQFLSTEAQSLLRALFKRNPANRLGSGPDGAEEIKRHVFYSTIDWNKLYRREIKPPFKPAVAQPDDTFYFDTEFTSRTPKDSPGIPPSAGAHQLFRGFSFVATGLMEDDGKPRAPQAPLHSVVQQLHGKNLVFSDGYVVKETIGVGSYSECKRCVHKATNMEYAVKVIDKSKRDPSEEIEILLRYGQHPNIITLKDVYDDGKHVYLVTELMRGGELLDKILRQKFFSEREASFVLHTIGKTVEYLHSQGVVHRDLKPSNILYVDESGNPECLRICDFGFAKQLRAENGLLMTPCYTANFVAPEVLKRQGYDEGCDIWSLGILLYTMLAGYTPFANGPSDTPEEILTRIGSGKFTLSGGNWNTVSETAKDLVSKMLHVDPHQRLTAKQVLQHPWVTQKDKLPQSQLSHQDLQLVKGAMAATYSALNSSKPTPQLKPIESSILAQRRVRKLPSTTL

Cyclin-dependent kinase 11B (Homo sapiens), sequence (P21127 whole entry): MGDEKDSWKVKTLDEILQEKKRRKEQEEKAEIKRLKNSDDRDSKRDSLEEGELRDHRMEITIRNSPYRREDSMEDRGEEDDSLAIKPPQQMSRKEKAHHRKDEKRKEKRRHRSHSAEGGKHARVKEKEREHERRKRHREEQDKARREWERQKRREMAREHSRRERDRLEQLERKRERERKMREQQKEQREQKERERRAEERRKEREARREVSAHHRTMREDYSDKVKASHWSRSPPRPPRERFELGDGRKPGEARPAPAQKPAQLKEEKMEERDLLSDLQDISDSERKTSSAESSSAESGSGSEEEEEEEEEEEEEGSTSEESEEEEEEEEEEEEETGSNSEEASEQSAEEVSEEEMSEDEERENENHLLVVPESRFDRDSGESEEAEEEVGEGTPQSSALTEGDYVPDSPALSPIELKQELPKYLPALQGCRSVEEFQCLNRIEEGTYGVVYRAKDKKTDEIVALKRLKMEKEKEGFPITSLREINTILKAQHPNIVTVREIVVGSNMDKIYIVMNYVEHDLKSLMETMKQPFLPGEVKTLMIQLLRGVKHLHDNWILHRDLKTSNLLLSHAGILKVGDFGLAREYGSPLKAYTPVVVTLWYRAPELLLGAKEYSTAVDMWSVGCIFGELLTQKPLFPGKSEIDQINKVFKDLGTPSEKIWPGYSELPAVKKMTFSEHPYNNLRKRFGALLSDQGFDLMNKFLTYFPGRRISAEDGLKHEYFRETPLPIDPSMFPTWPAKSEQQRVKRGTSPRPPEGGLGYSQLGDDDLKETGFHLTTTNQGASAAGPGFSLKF
Serine/threonine-protein kinase PAK 2 (Homo sapiens), sequence (Q13177 whole entry): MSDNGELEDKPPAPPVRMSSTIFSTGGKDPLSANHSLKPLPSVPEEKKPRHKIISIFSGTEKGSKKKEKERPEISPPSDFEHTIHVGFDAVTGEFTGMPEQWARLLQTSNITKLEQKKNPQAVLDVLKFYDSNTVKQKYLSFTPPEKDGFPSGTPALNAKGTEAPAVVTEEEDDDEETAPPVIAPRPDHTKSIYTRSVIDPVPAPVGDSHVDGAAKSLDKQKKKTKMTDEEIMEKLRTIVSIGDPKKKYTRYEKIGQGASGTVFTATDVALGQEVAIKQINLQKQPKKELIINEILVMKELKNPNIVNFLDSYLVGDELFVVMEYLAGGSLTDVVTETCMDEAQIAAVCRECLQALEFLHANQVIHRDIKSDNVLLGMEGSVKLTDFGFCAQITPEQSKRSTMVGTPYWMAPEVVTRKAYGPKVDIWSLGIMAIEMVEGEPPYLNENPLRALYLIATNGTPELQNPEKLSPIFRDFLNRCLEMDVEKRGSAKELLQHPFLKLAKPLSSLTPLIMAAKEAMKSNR
Ribosomal protein S6 kinase alpha-5 (Homo sapiens), sequence (O75582 whole entry, looked up): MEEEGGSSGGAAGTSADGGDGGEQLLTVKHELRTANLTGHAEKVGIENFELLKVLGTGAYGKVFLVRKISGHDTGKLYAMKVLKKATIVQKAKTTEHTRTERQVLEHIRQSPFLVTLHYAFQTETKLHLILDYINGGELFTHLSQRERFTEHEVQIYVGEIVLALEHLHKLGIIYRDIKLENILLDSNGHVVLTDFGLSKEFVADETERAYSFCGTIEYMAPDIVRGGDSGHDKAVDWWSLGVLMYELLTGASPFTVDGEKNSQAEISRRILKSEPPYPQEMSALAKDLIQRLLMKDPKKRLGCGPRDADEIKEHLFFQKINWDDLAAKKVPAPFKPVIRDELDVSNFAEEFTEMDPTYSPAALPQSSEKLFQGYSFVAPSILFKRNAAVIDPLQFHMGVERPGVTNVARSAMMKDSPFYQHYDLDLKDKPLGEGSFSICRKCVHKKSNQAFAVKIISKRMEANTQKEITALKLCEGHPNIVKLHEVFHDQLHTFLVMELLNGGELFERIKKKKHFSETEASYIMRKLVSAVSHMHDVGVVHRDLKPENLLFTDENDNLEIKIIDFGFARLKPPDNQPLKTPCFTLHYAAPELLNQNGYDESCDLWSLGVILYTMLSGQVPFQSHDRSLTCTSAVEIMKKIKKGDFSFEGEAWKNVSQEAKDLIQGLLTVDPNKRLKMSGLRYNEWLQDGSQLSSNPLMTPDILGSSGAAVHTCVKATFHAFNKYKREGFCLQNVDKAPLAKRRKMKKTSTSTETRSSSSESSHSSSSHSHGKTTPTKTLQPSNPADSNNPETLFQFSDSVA

Molecule `N#Cc1cccc(-c2c[nH]c3ncnc(N4CCOCC4)c23)c1` registered a % of control in experiment [1] of 100%. For the molecule `CN(C(=O)c1cnn2cccnc12)c1cc2c(cc1N1CCOCC1)C(=O)N(C[C@@H](F)C(C)(C)O)C2`, the dTM in experiment [2] is -0.3 K; in experiment [3], 0 K. Molecule `C=CC(=O)Nc1cc(-n2c(=O)ccc3cnc4ccc(-c5ccc(NS(C)(=O)=O)cc5)cc4c32)ccc1C` had a % of control in experiment [4] of 95%.

In turn, `CN(C)C/C=C/C(=O)Nc1ccc(C(=O)N2CCCC(Nc3ncc(Cl)c(-c4c[nH]c5ccccc45)n3)C2)cc1` (stereo unspecified) showed a % of control in experiment [5] of 100%. With `C=CC(=O)Nc1ccc(C(=O)Nc2[nH]nc3c2CN(C(=O)N[C@H](CN(C)C)c2ccccc2)C3(C)C)cc1`, the % of engagement in experiment [6] was 14.4%.
